These results are taken from PubChem BioAssay (NCI).

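Exposure lasted 48 hours, with cells grown in 96-well plates and compounds tested at five concentrations. At the GI50, growth is halved. At the TGI there is no net growth.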

Some test systems named below: SF-268 CNS; NCI/ADR-RES ovarian; HOP-62 NSCLC; A498 renal; MCF7 breast; SK-MEL-2 melanoma; HT29 colon; HCC-2998 colon; M14 melanoma; PC-3 prostate.
Holding throughout (assay): growth of human tumour cells (NCI), 48 h

As for `CCN(CC)CCCNc1ncc(C)c2[nH]c3ccncc3c12`, the TGI was 32.4 µM in the experiment with SF-268 CNS; above 100 µM in the experiment with NCI/ADR-RES ovarian; 79.5 µM in the experiment with HOP-62 NSCLC; 40.4 µM in the experiment with A498 renal; 17.4 µM in the experiment with MCF7 breast; 23.6 µM with SK-MEL-2 melanoma. The TGI came out at 26.2 µM in the experiment with HT29 colon and 23.6 µM in the experiment on HCC-2998 colon.

Turning to `Nc1nc(Cl)cc(OCC2(CO)CC(OCc3ccccc3)C2)n1` (centres undefined), the GI50 in the experiment with M14 melanoma was 95 µM; with NCI/ADR-RES ovarian, 45.8 µM; with HOP-62 NSCLC, 95.7 µM; in the experiment on A498 renal it was 58.3 µM; with MCF7 breast it was 46.2 µM; in the experiment on HT29 colon it was 33.9 µM.

In the case of `COc1cc(/C=C/c2cc(/C=C/c3ccc(O)c(OC)c3)nc(N)n2)ccc1O`, the GI50 with SF-268 CNS is 2.11 µM; in the experiment on NCI/ADR-RES ovarian, 2.88 µM; in the experiment with A498 renal, 1.51 µM; in the experiment on PC-3 prostate it was 1.48 µM; in the experiment with MCF7 breast, 1.81 µM; with HT29 colon, 0.314 µM. For the same compound, the GI50 in the experiment on HCC-2998 colon was 1.75 µM. For the same compound, the TGI in the experiment with SF-268 CNS was 15.6 µM; in the experiment on NCI/ADR-RES ovarian it was 18.8 µM; in the experiment with A498 renal, 3.26 µM; with PC-3 prostate, 5.57 µM; with MCF7 breast, 6.33 µM; in the experiment on HT29 colon it was 0.948 µM. In the experiment with HCC-2998 colon, the TGI stood at 3.19 µM.

For the compound `O=[N+]([O-])c1ccccc1NC1c2ccccc2Oc2ccccc21`, the GI50 in the experiment with M14 melanoma was 3.53 µM; with SF-268 CNS, 8.06 µM; in the experiment on NCI/ADR-RES ovarian, 4.03 µM; in the experiment with HOP-62 NSCLC, 8.07 µM; in the experiment on A498 renal, 5.82 µM; with PC-3 prostate, 5.88 µM. Further, the GI50 in the experiment with MCF7 breast is 4.13 µM; in the experiment with SK-MEL-2 melanoma it was 8.43 µM; in the experiment with HT29 colon it was 3.83 µM; with HCC-2998 colon it was 75.2 µM. The TGI with M14 melanoma, in the experiment with SF-268 CNS, in the experiment with NCI/ADR-RES ovarian, in the experiment with HOP-62 NSCLC, in the experiment on A498 renal and with PC-3 prostate was above 100 µM throughout. Further, the TGI in the experiment on MCF7 breast, with SK-MEL-2 melanoma, in the experiment with HT29 colon and with HCC-2998 colon was above 100 µM in each case.

In the case of `COC(=O)c1cccc(N[C@@H]2c3cc4c(cc3C(c3cc(OC)c(O)c(OC)c3)[C@H]3C(=O)OCC32)OCO4)c1` (some centres undefined), the TGI was above 42.5 µM in the experiment on SF-268 CNS; above 85.1 µM in the experiment on NCI/ADR-RES ovarian; 0.937 µM with HOP-62 NSCLC; 3.46 µM in the experiment on A498 renal; above 67.7 µM with MCF7 breast; above 63 µM in the experiment on SK-MEL-2 melanoma. Also, the TGI with HT29 colon was 16 µM; in the experiment on HCC-2998 colon, 8.09 µM.

Regarding `N=c1c2c(=S)n(-c3ccccc3)c(=S)n(-c3ccccc3)c2nc(SCCCN2CCN(c3cccc(Cl)c3)CC2)n1-c1ccccc1`, the TGI with NCI/ADR-RES ovarian, in the experiment on HOP-62 NSCLC, in the experiment on A498 renal, with PC-3 prostate, with MCF7 breast and in the experiment on SK-MEL-2 melanoma was above 100 µM throughout. In the experiment with HCC-2998 colon, the TGI was above 100 µM.

In the case of `O=C(O)CNc1ccc(C(=O)O)cc1`, the TGI with M14 melanoma, with SF-268 CNS, in the experiment with NCI/ADR-RES ovarian, in the experiment on HOP-62 NSCLC, with A498 renal and with PC-3 prostate was above 100 µM throughout. The TGI with MCF7 breast, with SK-MEL-2 melanoma and with HT29 colon was above 100 µM in each case.

As to `Cc1ccc([N+](=O)[O-])cc1S(=O)(=O)Nc1ccc(C2=NNC(c3ccccc3O)C2)cc1` (centres undefined), the TGI is 51.6 µM with M14 melanoma; above 100 µM in the experiment on SF-268 CNS; 81 µM in the experiment on NCI/ADR-RES ovarian; 57.7 µM in the experiment on HOP-62 NSCLC; 79.3 µM in the experiment on A498 renal; above 100 µM in the experiment with PC-3 prostate. The TGI in the experiment on MCF7 breast is 64.7 µM; in the experiment with SK-MEL-2 melanoma it was 65.6 µM; in the experiment on HT29 colon, above 100 µM; in the experiment on HCC-2998 colon it was above 100 µM.

As for `CCCCCCCC/C=C\CCCCCCCC(=O)O`, the TGI with SF-268 CNS was 192 µM; in the experiment on NCI/ADR-RES ovarian, 196 µM; with HOP-62 NSCLC, above 500 µM; in the experiment with A498 renal, above 500 µM; in the experiment with MCF7 breast, 215 µM; in the experiment with SK-MEL-2 melanoma, above 281 µM. The TGI in the experiment on HT29 colon and in the experiment on HCC-2998 colon was above 500 µM in each case.

Consider `CCNc1nnc(-c2nsc3ccccc23)s1`, for which the TGI was above 100 µM with M14 melanoma; 80.9 µM in the experiment on SF-268 CNS; above 100 µM with HOP-62 NSCLC; above 100 µM in the experiment on SK-MEL-2 melanoma; 93.3 µM with HT29 colon; above 100 µM in the experiment on HCC-2998 colon.

As for `CC(=O)Oc1ccc2c(c1)oc1c3ccc(OC(C)=O)cc3n(C)c(=O)c21`, the TGI in the experiment on M14 melanoma was above 100 µM; in the experiment on SF-268 CNS it was 78.2 µM; in the experiment on NCI/ADR-RES ovarian, 51.7 µM; in the experiment on HOP-62 NSCLC, above 100 µM; in the experiment with PC-3 prostate, above 100 µM; in the experiment on MCF7 breast it was above 100 µM. Besides, the results for the TGI with HT29 colon and in the experiment on HCC-2998 colon were above 100 µM and 57.1 µM, respectively.

On to `O=C1C=CC2=[N+]([O-])C(c3ccccc3)(c3ccccc3)C(=Nc3ccccc3)C2=C1`, for which the TGI in the experiment with M14 melanoma worked out at 3.76 µM; in the experiment on SF-268 CNS, 11.4 µM; with HOP-62 NSCLC it was 29.3 µM; in the experiment with SK-MEL-2 melanoma, 40.7 µM; with HT29 colon it was 5.63 µM; in the experiment with HCC-2998 colon it was 19.6 µM.

In the case of `Cc1cc(C)c2c(c1)CC1(Cc3c(C)ccc(C)c3C1=O)C2=O` (centres undefined), the TGI in the experiment with M14 melanoma, with SF-268 CNS, in the experiment on NCI/ADR-RES ovarian, in the experiment with A498 renal, in the experiment on PC-3 prostate and with MCF7 breast was above 100 µM each time. Also, the TGI with SK-MEL-2 melanoma and in the experiment on HCC-2998 colon was above 100 µM in each case.

With `N=C(N)c1ccc(-c2ccc(-c3ccccc3)s2)cc1`, the GI50 is 1.68 µM with M14 melanoma, 1.76 µM in the experiment with PC-3 prostate and 1.97 µM with SK-MEL-2 melanoma. Also, the TGI in the experiment with M14 melanoma was 3.51 µM; with PC-3 prostate it was 3.47 µM; in the experiment with SK-MEL-2 melanoma, 4.1 µM.
